Data published in US20160145242A1, “PHENYLIMIDAZOLE DERIVATIVE, AND THERAPEUTIC MEDICINE OR PREVENTIVE MEDICINE FOR INFLAMMATORY DISEASE, ETC” (NIPPON SODA CO., LTD., priority 2013, published 2016).
Read-outs that look alike come from different tables or passages of the source.

Columns and labels:
[1] = test system: rattlesnake-derived phospholipase A2-II; experiment: Phospholipase A2-II activity inhibitory action; assay type: biochemical; conditions: 3 μM
Description: The inhibitory action of the compound according to the present invention with respect to the activity of the present enzyme was examined using rattlesnake-derived phospholipase A2-II.
The rattlesnake-derived phospholipase A2-II was reacted with 0.030 μCi of 1-palmitoyl-2-[1-^14C]oleoyl-L-3-phosphatidylcholine and the amount of ^14C oleate which was a reaction product was measured by a radiation measurement method. 3 μM of the compound according to the present invention dissolved in dimethyl sulfoxide was added to the reaction system and the inhibition rate of ^14C oleate generation (phospholipase A2-II activity inhibition rate) was measured.

[2] = target: T1, rabbit reticulocyte-derived 15-lipoxygenase (Oryctolagus cuniculus, UniProt P12530); experiment: 15-Lipoxygenase activity inhibitory action; assay type: biochemical
T1 construct: Rabbit reticulocyte-derived 15-lipoxygenase; from tissue; host or cells: rabbit reticulocytes
T1 sequence (P12530 1-663): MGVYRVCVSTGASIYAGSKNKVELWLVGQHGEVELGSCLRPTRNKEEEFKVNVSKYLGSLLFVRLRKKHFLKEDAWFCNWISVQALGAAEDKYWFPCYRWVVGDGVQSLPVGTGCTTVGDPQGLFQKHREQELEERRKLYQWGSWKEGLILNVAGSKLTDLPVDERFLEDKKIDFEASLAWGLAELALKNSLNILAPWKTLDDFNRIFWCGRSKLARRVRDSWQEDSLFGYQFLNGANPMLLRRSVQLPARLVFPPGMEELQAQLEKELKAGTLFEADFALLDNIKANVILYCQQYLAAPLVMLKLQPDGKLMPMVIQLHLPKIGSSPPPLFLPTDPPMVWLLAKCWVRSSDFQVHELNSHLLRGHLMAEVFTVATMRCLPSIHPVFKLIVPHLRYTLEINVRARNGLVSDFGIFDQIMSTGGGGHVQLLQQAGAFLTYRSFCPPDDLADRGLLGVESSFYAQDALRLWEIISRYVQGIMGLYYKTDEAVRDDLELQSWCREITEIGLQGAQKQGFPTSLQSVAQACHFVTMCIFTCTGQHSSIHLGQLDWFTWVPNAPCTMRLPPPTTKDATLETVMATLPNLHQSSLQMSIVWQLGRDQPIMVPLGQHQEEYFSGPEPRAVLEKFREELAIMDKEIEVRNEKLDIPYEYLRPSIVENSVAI
Description: The inhibitory action of the compound of the present invention with respect to the activity of the present enzyme was examined using rabbit reticulocyte-derived 15-lipoxygenase.
Rabbit reticulocyte-derived 15-lipoxygenase was reacted with 260 μM of linoleic acid and the amount of 13-hydroperoxide which was a reaction product was measured using an absorption spectrometer.

[3] = test system: guinea pig liver microsome-derived lipid peroxidase; experiment: Lipid peroxidase activity inhibitory action; assay type: biochemical; conditions: 3 μM
Description: The inhibitory action of the compound according to the present invention with respect to the activity of the present enzyme was examined using guinea pig liver microsome-derived lipid peroxidase.
Dunkin-Hartley guinea pig lung-derived lipid peroxidase was reacted with 0.25 M of polyvalent unsaturated fatty acids and the amount of malondialdehyde which was a reaction product was measured by an absorbance determination method. 3 μM of the compound according to the present invention dissolved in dimethyl sulfoxide was added to the reaction system and the inhibition rate of malondialdehyde generation (lipid peroxidase activity inhibition rate) was measured.

[4] = target: T2, guinea pig lung-derived leukotriene A4 hydrolase (Cavia porcellus, UniProt P19602); experiment: Leukotriene A4 hydrolase activity inhibitory action; assay type: biochemical; conditions: read-out: leukotriene A4 hydrolase activity inhibition rate
T2 construct: guinea pig lung-derived leukotriene A4 hydrolase; from tissue; host or cells: Dunkin-Hartley guinea pig lung
T2 sequence (P19602 1-611): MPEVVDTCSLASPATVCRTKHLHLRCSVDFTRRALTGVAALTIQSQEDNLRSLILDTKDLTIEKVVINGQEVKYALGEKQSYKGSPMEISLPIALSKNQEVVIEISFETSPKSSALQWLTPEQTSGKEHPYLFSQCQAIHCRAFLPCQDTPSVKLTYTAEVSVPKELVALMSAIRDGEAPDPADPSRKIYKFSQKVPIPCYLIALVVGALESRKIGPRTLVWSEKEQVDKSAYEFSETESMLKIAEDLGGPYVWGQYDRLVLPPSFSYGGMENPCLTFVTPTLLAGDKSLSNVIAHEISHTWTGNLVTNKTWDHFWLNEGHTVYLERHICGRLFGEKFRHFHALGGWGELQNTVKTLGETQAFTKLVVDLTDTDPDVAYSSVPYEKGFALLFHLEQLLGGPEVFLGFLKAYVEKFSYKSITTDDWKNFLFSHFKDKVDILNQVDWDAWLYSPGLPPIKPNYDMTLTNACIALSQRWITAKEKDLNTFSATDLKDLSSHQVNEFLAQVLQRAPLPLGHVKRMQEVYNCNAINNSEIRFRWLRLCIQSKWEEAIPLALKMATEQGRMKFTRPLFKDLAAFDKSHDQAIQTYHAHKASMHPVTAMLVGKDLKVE
Description: The inhibitory action of the compound according to the present invention with respect to the activity of the present enzyme was examined using guinea pig lung-derived leukotriene A4 hydrolase.
Dunkin-Hartley guinea pig lung-derived leukotriene A4 hydrolase was reacted with […] of leukotriene A4 and the amount of leukotriene B4 which was a reaction product was measured by an enzyme-linked immunosorbent assay. 3 μM of the compound of the present invention dissolved in dimethyl sulfoxide was added to the reaction system and the inhibition rate of leukotriene B4 generation (leukotriene A4 hydrolase activity inhibition rate) was measured.

[5] = target: T3, CYP3A4 (Homo sapiens, UniProt P08684); experiment: Cytochrome P450 inhibitory action, CYP3A4 in human liver microsomes; assay type: in vitro ADME; conditions: for inhibition at 10 min, 10 µM: pooled human liver microsomes, read-out: inhibition rate in the shown concentration
T3 construct: Using human liver microsomes pooled as an enzyme source; from tissue; host or cells: pooled human liver microsomes
Description: An inhibitory action of the compound of the present invention with respect to CYP2D6 (dextromethorphan was used as a substrate) and CYP3A4 (midazolam and testosterone were used as substrates) which are isozymes of cytochrome P450 (hereinafter, referred to as “CYP”) serving as a major drug-metabolizing enzyme was examined using human liver microsomes.
Using human liver microsomes pooled as an enzyme source, 1.3 mM NADP as a coenzyme, 3.3 mM D-glucose-6-phosphate, and 0.4 U/mL D-glucose-6-phosphate dehydrogenase, the corresponding substrate ([…] dextromethorphan for CYP2D6, 5 μM midazolam or 50 µM testosterone for CYP3A4) and the compound of the present invention were added such that the final concentration became 0.1, 1, 10 μM and then incubated at 37° C. for 10 minutes. The inhibition rate (%) of the compound of the present invention in each concentration was calculated by quantifying metabolites (CYP2D6; dextrorphan, CYP3A4; 1-hydroxymidazolam or 6β hydroxytestosterone) using HPLC-MS/MS and setting the value of the activity of an enzyme when drug was not incorporated therein as 100%. 50% inhibitory concentration IC50 (μM) was calculated by drawing a straight line between the concentration where the inhibition rate exceeds 50% and the concentration where the inhibition rate is less than 50% in a graph showing a relationship between the inhibition rate and the concentration and interpolating the concentration that becomes 50% inhibition.

T3 sequence (P08684 whole entry): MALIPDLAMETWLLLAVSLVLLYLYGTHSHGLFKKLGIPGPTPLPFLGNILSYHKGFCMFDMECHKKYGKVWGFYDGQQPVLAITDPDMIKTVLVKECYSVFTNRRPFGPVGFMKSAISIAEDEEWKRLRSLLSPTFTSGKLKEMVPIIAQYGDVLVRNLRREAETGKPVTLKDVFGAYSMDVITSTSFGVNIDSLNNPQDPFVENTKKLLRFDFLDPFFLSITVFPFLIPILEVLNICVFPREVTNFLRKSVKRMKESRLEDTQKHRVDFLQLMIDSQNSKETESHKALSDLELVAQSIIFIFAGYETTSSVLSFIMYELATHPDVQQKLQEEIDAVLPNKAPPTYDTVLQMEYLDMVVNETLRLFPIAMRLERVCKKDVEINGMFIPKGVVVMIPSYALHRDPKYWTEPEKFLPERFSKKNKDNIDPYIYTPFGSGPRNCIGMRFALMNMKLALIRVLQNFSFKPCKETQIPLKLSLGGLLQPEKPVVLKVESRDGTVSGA

With `CC(=O)N1CCN(c2ccc(N)c(-n3ccnc3)c2)CC1` [Compound 1-1, 4-acetyl-1-(4-amino-3-imidazole-1-yl-phenyl)piperazine] the “phospholipase A2-II activity inhibition rate” value [1] was 12%, the inhibition at 3 µM ([2]; 3 μM, substrate linoleic acid 260 μM, read-out: 15-lipoxygenase activity inhibition rate) was 49% and the IC50 ([2]; estimated from 49% inhibition at 3 μM, read-out: 50% inhibitory concentration with respect to 15-lipoxygenase activity) was about 3 µM. For the same compound, the “lipid peroxidase activity inhibition rate” value [3] was 13%, the inhibition at 3 µM [4] was 14% and the inhibition at 10 min, 10 µM ([5]; probe midazolam (5 μM), substrate midazolam) was 28%. For the same compound, the inhibition at 10 min, 10 µM ([5]; probe testosterone (50 M [sic]), substrate testosterone) was 6%, the IC50 ([5]; substrate midazolam) was over 10 µM and the IC50 ([5]; substrate testosterone) was over 10 µM.
